{"source": "ChEMBL document CHEMBL6177951", "about": "“Synthesis and anti-MRSA activity of quaternized small molecule antimicrobial peptide mimics based on norharmane” (Eur J Med Chem, 2025)", "key": {"[1]": {"test": "Hemolytic activity in sheep RBC assessed as hemolysis at 1024 ug/ml incubated for 1 hrs relative to control", "assay_type": "toxicity, cell-based, Ovis aries, Erythrocyte", "details": "sheep red blood cells, at 1024 µg/mL, read-out: Activity"}, "Staphylococcus aureus [2]": {"system": "Staphylococcus aureus", "test": "Antibacterial activity against methicillin-resistant Staphylococcus aureus clinical isolate M-18 incubated for 14 hrs by two-fold serial dilution method", "assay_type": "functional"}, "Staphylococcus aureus [3]": {"system": "Staphylococcus aureus", "test": "Antibacterial activity against methicillin-resistant Staphylococcus aureus clinical isolate M-16 incubated for 14 hrs by two-fold serial dilution method", "assay_type": "functional"}, "Cell membrane [4]": {"system": "Cell membrane", "test": "Induction of cell membrane integrity in methicillin-resistant Staphylococcus aureus assessed as appearance of blue and red fluorescence at 0.25 ug/ml incubated for 8 hrs by DAPI/PI staining based fluorescence microscopic analysis", "assay_type": "subcellular", "details": "dose 0.25 µg/ml"}, "Staphylococcus aureus [5]": {"system": "Staphylococcus aureus", "test": "Antibacterial activity against methicillin-resistant Staphylococcus aureus assessed as change in cell surface zeta potential at 256 ug/ml incubated for 8 hrs", "assay_type": "functional, organism-based", "details": "dose 256.0 µg/ml"}, "Staphylococcus aureus [6]": {"system": "Staphylococcus aureus", "test": "In vivo antibacterial activity against methicillin-resistant Staphylococcus aureus infected in female Kunming mouse skin infection model assessed as recovery of dorsal surface at 5 to 20 mg/kg measured after 48 hrs", "assay_type": "functional, organism-based", "details": "dose 5-20 mg/kg"}, "Staphylococcus aureus [7]": {"system": "Staphylococcus aureus", "test": "Antibacterial activity against methicillin-resistant Staphylococcus aureus clinical isolate M-14 incubated for 14 hrs by two-fold serial dilution method", "assay_type": "functional"}, "Staphylococcus aureus [8]": {"system": "Staphylococcus aureus", "test": "Antibacterial activity against Staphylococcus aureus ATCC 33591 assessed as log reduction in bacterial growth at 1 times MIC measured at 6 hrs by time-kill kinetic assay", "assay_type": "functional"}, "Staphylococcus aureus [9]": {"system": "Staphylococcus aureus", "test": "Antibacterial activity against methicillin-resistant Staphylococcus aureus assessed as reduction in bacterial growth by measuring fold increase in MIC in presence of 32 ug/ml peptidoglycan incubated for 0.5 hrs by exogenous addition assay", "assay_type": "functional"}, "Lipoteichoic acid": {"system": "Lipoteichoic acid", "test": "Displacement of BODIPY-TR-cadaverine from Staphylococcus aureus LTA assessed as increase in fluorescence intensity at 2 ug/ml incubated for 0.5 hrs by fluorescence based analysis relative to control", "details": "dose 2.0 µg/ml"}, "[10]": {"test": "Toxicity in female Kunming mouse assessed as pathological changes in skin tissue at 5 to 20 mg/kg, sc measured after 48 hrs by H and E staining based analysis", "assay_type": "organism-based", "details": "in vivo, dose 5-20 mg/kg"}, "Staphylococcus aureus [11]": {"system": "Staphylococcus aureus", "test": "Antibacterial activity against methicillin-resistant Staphylococcus aureus clinical isolate M-17 incubated for 14 hrs by two-fold serial dilution method", "assay_type": "functional"}, "Staphylococcus aureus [12]": {"system": "Staphylococcus aureus", "test": "Antibiofilm activity against methicillin-resistant Staphylococcus aureus assessed as inhibition of biofilm formation at 4 ug/ml incubated for 24 hrs by crystal violet staining based analysis relative to control", "assay_type": "functional", "parameters": "scale not given: the % may be the effect or the level left", "details": "dose 4 µg/ml"}, "[13]": {"test": "Hemolytic activity in sheep RBC assessed as hemolysis at 256 times MIC incubated for 1 hrs relative to control", "assay_type": "toxicity, cell-based, Ovis aries, Erythrocyte", "details": "sheep red blood cells, read-out: Activity"}, "Staphylococcus aureus [14]": {"system": "Staphylococcus aureus", "test": "Antibacterial activity against Staphylococcus aureus ATCC 33591 assessed as resistance development by measuring fold increase in MIC at 0.5 times MIC incubated for 8 hrs and measured after 15 passages", "assay_type": "functional"}, "Staphylococcus aureus [15]": {"system": "Staphylococcus aureus", "test": "Antibacterial activity against Staphylococcus aureus ATCC 33591 assessed as log reduction in bacterial growth at 4 times MIC measured at 6 hrs by time-kill kinetic assay", "assay_type": "functional"}, "Calf thymus DNA [16]": {"system": "Calf thymus DNA", "test": "Binding affinity to calf thymus DNA assessed as change in Gibbs free energy at 3 uM by ITC assay", "assay_type": "nucleic-acid assay", "details": "Bos taurus"}, "Calf thymus DNA [17]": {"system": "Calf thymus DNA", "test": "Binding affinity to calf thymus DNA assessed as binding constant by ITC assay", "assay_type": "nucleic-acid assay", "details": "Bos taurus"}, "[18]": {"test": "Toxicity in female Kunming mouse assessed as inflammatory response in kidney at 500 to 2000 mg/kg, sc measured after 7 days by H and E staining based analysis", "assay_type": "organism-based", "details": "in vivo, 168 h, dose 500-2000 mg/kg, time 7 day"}, "Staphylococcus aureus [19]": {"system": "Staphylococcus aureus", "test": "Induction of morphological changes in methicillin-resistant Staphylococcus aureus assessed as appearance of broken cells at 0.5 ug/ml incubated for 6 hrs by SEM analysis", "assay_type": "functional, organism-based", "details": "dose 0.5 µg/ml"}, "Cell membrane [20]": {"system": "Cell membrane", "test": "Induction of cell membrane permeability in methicillin-resistant Staphylococcus aureus assessed as increase in nucleic acid leakage at 2 ug/ml incubated for 8 hrs", "assay_type": "subcellular", "details": "dose 2.0 µg/ml"}, "Staphylococcus aureus [21]": {"system": "Staphylococcus aureus", "test": "Antibacterial activity against methicillin-resistant Staphylococcus aureus clinical isolate M-21 incubated for 14 hrs by two-fold serial dilution method", "assay_type": "functional"}, "Calf thymus DNA [22]": {"system": "Calf thymus DNA", "test": "Binding affinity to calf thymus DNA assessed as dissociation constant by ITC assay", "assay_type": "nucleic-acid assay, Bos taurus"}, "Staphylococcus aureus [23]": {"system": "Staphylococcus aureus", "test": "Antibiofilm activity against methicillin-resistant Staphylococcus aureus assessed as disruption of preformed biofilm at 0.25 to 16 ug/ml incubated for 24 hrs by crystal violet staining based analysis", "assay_type": "functional, organism-based", "details": "dose 0.25-16 µg/ml"}, "Staphylococcus aureus [24]": {"system": "Staphylococcus aureus", "test": "Antibacterial activity against methicillin-resistant Staphylococcus aureus clinical isolate M-23 incubated for 14 hrs by two-fold serial dilution method", "assay_type": "functional"}, "Staphylococcus aureus [25]": {"system": "Staphylococcus aureus", "test": "Antibacterial activity against methicillin-resistant Staphylococcus aureus clinical isolate M-20 incubated for 14 hrs by two-fold serial dilution method", "assay_type": "functional"}, "[26]": {"test": "Toxicity in female Kunming mouse assessed as inflammatory cell infiltration at 5 to 20 mg/kg, sc measured after 48 hrs by H and E staining based analysis", "assay_type": "organism-based", "details": "in vivo, dose 5-20 mg/kg"}, "[27]": {"test": "Acute toxicity in female Kunming mouse assessed as aberrant behavior at 500 to 2000 mg/kg, sc measured after 7 days", "assay_type": "organism-based", "details": "in vivo, 168 h, dose 500-2000 mg/kg, time 7 day"}, "Staphylococcus aureus [28]": {"system": "Staphylococcus aureus", "test": "Antibacterial activity against Staphylococcus aureus ATCC 33591 assessed as log reduction in bacterial growth at 2 times MIC measured at 6 hrs by time-kill kinetic assay", "assay_type": "functional"}, "Staphylococcus aureus [29]": {"system": "Staphylococcus aureus", "test": "Antibacterial activity against Staphylococcus aureus CMCC 26003 assessed as inhibition of bacterial growth incubated for 14 hrs by two-fold serial dilution method", "assay_type": "functional"}, "Staphylococcus aureus [30]": {"system": "Staphylococcus aureus", "test": "Antibacterial activity against methicillin-resistant Staphylococcus aureus clinical isolate M-15 incubated for 14 hrs by two-fold serial dilution method", "assay_type": "functional"}, "L02": {"system": "L02", "test": "Cytotoxicity against human L02 cells assessed as reduction in cell viability at 0.25 ug/ml incubated for 24 hrs by CCK-8 assay relative to control", "assay_type": "toxicity, cell-based", "details": "l02, 24 h, at 0.25 µg/mL"}, "[31]": {"test": "Toxicity in female Kunming mouse assessed as inflammatory response in liver at 500 to 2000 mg/kg, sc measured after 7 days by H and E staining based analysis", "assay_type": "organism-based", "details": "in vivo, 168 h, dose 500-2000 mg/kg, time 7 day"}, "Staphylococcus aureus [32]": {"system": "Staphylococcus aureus", "test": "Antibacterial activity against methicillin-resistant Staphylococcus aureus assessed as reduction in bacterial growth in presence of 16 ug/ml peptidoglycan incubated for 0.5 hrs by exogenous addition assay", "assay_type": "functional, organism-based"}, "Staphylococcus aureus [33]": {"system": "Staphylococcus aureus", "test": "Antibacterial activity against Staphylococcus aureus ATCC 25923 assessed as inhibition of bacterial growth incubated for 14 hrs by two-fold serial dilution method", "assay_type": "functional"}, "Staphylococcus aureus [34]": {"system": "Staphylococcus aureus", "test": "Induction of oxidative damage in methicillin-resistant Staphylococcus aureus assessed as loss of GSH activity incubated for 8 hrs", "assay_type": "functional, organism-based", "details": "dose 0.25-2 µg/ml"}, "Calf thymus DNA [35]": {"system": "Calf thymus DNA", "test": "Binding affinity to calf thymus DNA assessed as change in enthalpy at 3 uM by ITC assay", "assay_type": "nucleic-acid assay", "details": "Bos taurus"}, "Staphylococcus aureus [36]": {"system": "Staphylococcus aureus", "test": "Antibacterial activity against Staphylococcus aureus ATCC 33591 assessed as inhibition of bacterial growth at 1 to 2 times MIC measured after 24 hrs by growth kinetic assay", "assay_type": "functional, organism-based"}, "Cell membrane [37]": {"system": "Cell membrane", "test": "Induction of cytoplasmic membrane depolarization in methicillin-resistant Staphylococcus aureus assessed as increase in fluorescence intensity by DiSC35 dye based microplate reader analysis", "assay_type": "subcellular"}, "Staphylococcus aureus [38]": {"system": "Staphylococcus aureus", "test": "In vivo antibacterial activity against methicillin-resistant Staphylococcus aureus infected in female Kunming mouse skin infection model assessed as appearance of smooth inside skin at 20 mg/kg measured after 48 hrs", "assay_type": "functional, organism-based"}}, "note": "Activity calls are given as the source filed them. No cut-off for these calls is given here."}
{"compound": "C[n+]1ccc2c3ccccc3n(CCCCCCCCCCCn3c4ccccc4c4cc[n+](C)cc43)c2c1.[I-].[I-]", "values": [{"measurement": "hemolysis at 1 h, 1024 ug/ml", "setting": "[1]", "result": 26.4, "unit": "%"}, {"measurement": "MIC", "setting": "Staphylococcus aureus [2]", "result": 0.5, "unit": "µg/mL"}, {"measurement": "MIC", "setting": "Staphylococcus aureus [3]", "result": 0.5, "unit": "µg/mL"}, {"measurement": "Activity", "setting": "Cell membrane [4]", "result": "Active"}, {"measurement": "Activity", "setting": "Staphylococcus aureus [5]", "result": "Active"}, {"measurement": "Activity", "setting": "Staphylococcus aureus [6]", "result": "Active"}, {"measurement": "MIC", "setting": "Staphylococcus aureus [7]", "result": 0.25, "unit": "µg/mL"}, {"measurement": "Activity", "setting": "Staphylococcus aureus [8]", "result": 3.95, "unit": "log10CFU/ml"}, {"measurement": "fold change (FC)", "setting": "Staphylococcus aureus [9]", "result": 4}, {"measurement": "Activity", "setting": "Lipoteichoic acid", "result": 31.7, "unit": "%"}, {"measurement": "Activity", "setting": "[10]", "result": "Non-toxic"}, {"measurement": "MIC", "setting": "Staphylococcus aureus [11]", "result": 0.5, "unit": "µg/mL"}, {"measurement": "Activity", "setting": "Staphylococcus aureus [12]", "result": 98, "unit": "%"}, {"measurement": "hemolysis at 1 h, 256 times MIC", "setting": "[13]", "result": "< 10", "unit": "%"}, {"measurement": "fold change (FC)", "setting": "Staphylococcus aureus [14]", "result": 2}, {"measurement": "Activity", "setting": "Staphylococcus aureus [15]", "result": 5.31, "unit": "log10CFU/ml"}, {"measurement": "deltaG", "setting": "Calf thymus DNA [16]", "result": -7.29, "unit": "kcal/mol"}, {"measurement": "K", "setting": "Calf thymus DNA [17]", "result": "2.21 10^5/M"}, {"measurement": "Activity", "setting": "[18]", "result": "Non-toxic"}, {"measurement": "Activity", "setting": "Staphylococcus aureus [19]", "result": "Active"}, {"measurement": "Activity", "setting": "Cell membrane [20]", "result": "Active"}, {"measurement": "MIC", "setting": "Staphylococcus aureus [21]", "result": 1, "unit": "µg/mL"}, {"measurement": "Kd", "setting": "Calf thymus DNA [22]", "result": 4.52, "unit": "µM"}, {"measurement": "Activity", "setting": "Staphylococcus aureus [23]", "result": "inactive"}, {"measurement": "MIC", "setting": "Staphylococcus aureus [24]", "result": 0.5, "unit": "µg/mL"}, {"measurement": "MIC", "setting": "Staphylococcus aureus [25]", "result": 0.5, "unit": "µg/mL"}, {"measurement": "Activity", "setting": "[26]", "result": "Non-toxic"}, {"measurement": "Activity", "setting": "[27]", "result": "Non-toxic"}, {"measurement": "Activity", "setting": "Staphylococcus aureus [28]", "result": 4.26, "unit": "log10CFU/ml"}, {"measurement": "MIC", "setting": "Staphylococcus aureus [29]", "result": 0.25, "unit": "µg/mL"}, {"measurement": "MIC", "setting": "Staphylococcus aureus [30]", "result": 0.5, "unit": "µg/mL"}, {"measurement": "Activity", "setting": "L02", "result": 97.25, "unit": "%"}, {"measurement": "Activity", "setting": "[31]", "result": "Non-toxic"}, {"measurement": "Activity", "setting": "Staphylococcus aureus [32]", "result": "Active"}, {"measurement": "MIC", "setting": "Staphylococcus aureus [33]", "result": 1, "unit": "µg/mL"}, {"measurement": "Activity", "setting": "Staphylococcus aureus [34]", "result": "Dose-dependent-effect"}, {"measurement": "deltaH", "setting": "Calf thymus DNA [35]", "result": -0.223, "unit": "kcal/mol"}, {"measurement": "Activity", "setting": "Staphylococcus aureus [36]", "result": "Active"}, {"measurement": "Activity", "setting": "Cell membrane [37]", "result": "Dose-dependent-effect"}, {"measurement": "Activity", "setting": "Staphylococcus aureus [38]", "result": "Active"}]}
